Assay results reported in a melting point compilation (Tetko et al.; mined from patent text by program, amines drawn as free bases though some values may be those of a salt).

Row | SMILES | melting point
1 | O=C1c2ccccc2C(=O)N1CC(Cc1ccc([N+](=O)[O-])cc1)=NO | 181 to 183 °C
2 | CCCCCCCCCCc1sc2c(sc3c2sc2c4sccc4sc23)c1CCCCCCCCCC | 50.9 to 52.5 °C
3 | CCOC(=O)C(=CNC1CC1)C(=O)c1cc(F)c(F)cc1Cl | 55 to 58 °C
4 | CSCc1cn(C)c2c(F)cccc2c1=O | 165 to 167 °C
5 | N#Cc1ccc2c(C#N)c3cc(C#N)ccc3c(C#N)c2c1 | 345 °C
6 | CNC(=O)CNC(=O)c1ccc(C)c(-n2c(C)cc(OCc3ccccc3CNC(=O)Nc3cc(C(C)(C)C)nn3-c3ccc(O)c(Cl)c3)c(Cl)c2=O)c1 | 209 to 211 °C
7 | CCC(=O)N1N=C(c2ccc([N+](=O)[O-])c(C)c2)c2cc3c(cc2CC1C)OCO3 (stereo unspecified) | 172 to 175 °C
8 | Nc1cc(=O)n(Cc2ccc([N+](=O)[O-])cc2)[nH]1 | 182 °C
9 | COC(=O)c1cc(F)c([N+](=O)[O-])cc1NC(C)=O | 124 to 126 °C
10 | Cc1c(OCC(F)(F)C(F)(F)F)ccnc1CSc1nc2ccccc2[nH]1 | 145 to 146 °C
11 | COC(=O)CCc1ccc(N2CCN(C34CCC(C#N)(CC3)CC4)C2=O)cc1 | 195 to 197 °C
12 | O=C(NNC(=S)NNC(=O)c1ccccc1)c1ccccc1 | 177 to 179 °C
13 | CCOC(=O)N1CCN(c2cc3nc(C(C)(C)C)sc3cc2N)CC1 | 215 to 220 °C
14 | COC(=O)COc1ccc(C(=O)c2cccs2)c2c1CCCC2 | 85 °C
15 | CCOC(=O)c1c[nH]c2c(F)c(C)c(F)cc2c1=O | 260 to 263 °C
16 | C#Cc1ccc2c(c1)N(c1ncnc3cc(OC)c(OC)cc13)CC2 | 241 to 243 °C
17 | COC(=O)C1CCC2C3CCC4CC(O)C(OC)CC4(C)C3C(NC3CCCCC3)CC12C (stereo unspecified) | 141 to 143 °C
18 | COc1cc2cc(CO)c(CO)c(-c3ccnc(N4CCC(O)c5ccccc54)c3)c2cc1OC (stereo unspecified) | 90 to 94 °C
19 | Cn1c(=O)c(NS(C)(=O)=O)c(N2CCN(C(=O)c3cccs3)CC2)c2ccccc21 | 223 °C
20 | O=C(Nc1ccc2cc(CN3CCCC3)cnc2c1F)c1ccc(-c2ccc(Cl)cc2)cc1 | 206 to 208 °C
21 | Nc1nc(-n2cc(C(=O)O)c(=O)c3cc(F)c(F)c(Cl)c32)c(F)cc1Cl | 280 °C
22 | CC(C)Cn1c(=O)n(C)c(=O)c2c(I)n(Cc3cccc4ccccc34)cc21 | 140 to 142 °C
23 | CC(=O)Oc1ccc2c(c1)C(C(Cl)(Cl)Cl)OC(C(Cl)(Cl)Cl)O2 (stereo unspecified) | 142 to 144 °C
24 | CCN(CC)C1=C2N=c3cc(Cl)ccc3=C2Oc2ccccc2N1Cc1ccccc1 | 132 to 134 °C

Row | SMILES | melting point
25 | COP(=O)(OC)C(C)(C)O | 75 to 77 °C
26 | CCCCCCCCc1ccc(OCC(=O)Cn2cccn2)cc1 | 85 to 87 °C
27 | Cc1c(C)c2c(c(C)c1NC(=O)CC(C)(C)C)C(c1ccc(CC(C)C)cc1)CO2 (stereo unspecified) | 153 to 154 °C
28 | Cc1ccc(-n2c(=O)n(O)c(=O)c3cc(F)c(N4CCCC4)nc32)cc1 | 228 to 230 °C
29 | CS(=O)(=O)Nc1cc2oc(N)c(C(N)=O)c(=O)c2cc1Oc1ccccc1 | > 250 °C
30 | CCC(c1ccc(NC(=O)Cc2ccccc2C)c([N+](=O)[O-])c1)n1ccnc1 (stereo unspecified) | 122 °C
31 | CCCCCCCCCCCCCCOc1ccc(NC(=O)Nc2cccc(CO)c2)cc1 | 150 to 158 °C
32 | Cc1c(SCc2ccc(C(C)(C)C)cc2)cnn(C(C)(C)C)c1=O | 91 to 92 °C
33 | CCCOc1ccc(F)cc1-c1ccc(C#N)c(=O)[nH]1 | 242 to 243 °C
34 | Oc1cnc(-c2ccccc2)c(F)c1 | 150 to 151 °C
35 | Clc1cnc(Br)c(Br)c1 | 39.5 to 43 °C
36 | O=C(CCl)NC[C@@H]1CN2C(=O)C[C@H]2O1 (racemic) | 65 to 66.4 °C
37 | O=C1CC(c2cccc(-n3ccnc3)c2)=Nc2ccc(C#Cc3ccc(F)cc3)cc2N1 | 216 to 218 °C
38 | CC(C)(C)OC(=O)C1(N)C=CC(C(=O)O)C1 (stereo unspecified) | 126 to 127 °C
39 | CNN(NC)C(=O)Nc1cccc2c1C(=O)c1c-2n[nH]c1-c1cccs1 | 279 °C
40 | COc1ccc2c(c1)-c1ccccc1C=CC(O)=C2 | 97 to 99 °C
41 | CCc1ccc(CCOc2ccc(NC(=O)N(C)OC)cc2)nc1 | 90.5 to 92 °C
42 | COC(=O)Cn1ccnc1Cc1ccccc1 | 70.8 °C
43 | COc1ccc(-c2cc3cc(F)c(F)cc3[nH]2)cc1NC(=S)NCCO | 191 to 193 °C
44 | CCOC(=O)C1CCc2ccc(NC(=O)OC(C)(C)C)c(C)c2O1 (stereo unspecified) | 123 to 124 °C
45 | CCOC(=O)c1cc2c(C)ccc3c2n1CCC3 | 51 to 52 °C
46 | COCC(NC(=O)OCc1ccccc1)C(=O)NCc1ccccc1 (stereo unspecified) | 112 to 114 °C
47 | Cc1cc2cc(CN3CCC(C(=O)N4CCCCC4)CC3)cnc2cc1NC(=O)c1ccc(-c2ccc(F)cc2)cc1 | 250 °C
48 | NC(=O)CCCSCc1nccc(NC(N)=NCC(F)(F)F)n1 | 126 to 128 °C

Row | SMILES | melting point
49 | O=C(Nc1ccc(N2CCOCC2=O)cc1)[C@H]1CCCN1C(=O)c1ccc(Cl)s1 | 195 °C
50 | O=C(O)C1=Cc2cc(I)cc(I)c2OC1C(F)(F)F (stereo unspecified) | 243 to 244 °C
51 | CCOC(=O)C1=Cc2c3c(c(C(=O)OCC)cc2=N1)=Nc1cnccc1-3 | 198 to 201 °C
52 | CC(C)(C)c1cc(OCCCCc2nnn[nH]2)cc(C(C)(C)C)c1O | 141 to 142 °C
53 | Cc1cc(SCN(O)CSc2cc(C)c(O)c(C(C)(C)C)c2)cc(C(C)(C)C)c1O | 115 to 118 °C
54 | C#CC12CC3CC(C1)CC(C#C)(C3)C2 | 46 °C
55 | CCCn1nc(C(C)C)c(C(=O)O)c1Cc1ccc(-c2ccccc2C(=O)O)cc1 | 226 to 230 °C
56 | C=CCOc1c(C(C)=O)ccc(OCCCOc2ccc3cc(C(=O)OC)oc3c2C)c1CCC | 80 to 83 °C
57 | CC(=O)N[C@@H](CSC(c1ccccc1)(c1ccccc1)c1ccccc1)C(=O)N1CCSC1 | 197 to 198 °C
58 | CCCCCS(=O)(=O)NC(=O)CCc1ccc(OCCOC)cc1OCc1nc(-c2ccccc2)oc1C | 95.9 to 96.7 °C
59 | COC(=O)C(C)(C)c1cn2nc(Cl)ccc2n1 | 92 to 93 °C
60 | COC(=O)c1cc(O)cc(-c2ccccc2)c1 | 108 to 110 °C
61 | CCOC(=O)CCNC(=O)N1CCc2cc(S(=O)(=O)N3CCN(c4cccc(Cl)c4)CC3)ccc21 | 162 °C
62 | CC(=O)OCc1ccccc1C(=O)C(N)=O | 86.5 to 88 °C
63 | COC(=O)Nc1ccc(NC(=O)CN(C)C)c(N)c1 | 140 to 142 °C
64 | COc1ccc(C(=O)Nc2ccc(F)cc2F)cc1N | 166 to 168 °C
65 | CCSc1cc(C)nc(SCC)c1NC(=O)CCCCCSc1nc2ccccc2[nH]1 | 139 to 142 °C
66 | N#Cc1ccccc1Cn1cc(-c2ccnc(N)c2)n(-c2ccc(F)cc2)c1=O | 182 to 183 °C
67 | CCN1C(=O)Cc2ccc(C(O)CCl)c(O)c21 (stereo unspecified) | 141 to 147 °C
68 | CC(C)(CO)C(=O)N(O)Cc1ccccc1Cl | 130 to 132 °C
69 | Cc1cc(-c2cc(C(F)(F)F)n3ncc(C(=O)Nc4cc(S(N)(=O)=O)sc4Cl)c3n2)ccc1C(F)(F)F | 283 °C
70 | COc1cc(C2=NNC(=O)CC2)ccc1O | 209 to 210 °C
71 | Oc1cc(OCc2ccccc2)cc(OCc2ccccc2)c1 | 107 to 109 °C
